Experimental data published in patent US20260364072A1, “METHODS FOR PROMOTING EXPANSION OF HUMAN CD34+ CELLS IN VIVO AND FOR PROMOTING NEURAL REGENERATION” (THE REGENTS OF THE UNIVERSITY OF CALIFORNIA, priority 2023, published 2026).

How the values were obtained:
ADAR1 [1] = assay: ADAR1 expression by qRT-PCR in TF1a cells; assay type: cell-based, human; settings: TF1a AML cell line; 0.1 μM, 4 hours
From the text: For lentivirus-mediated knockdown of human ADAR1 in ADAR1 activation and RNA editing biomarker studies of the nanoluc-GFP reporter and endogenous transcripts, human leukemia cells were stably transduced with the lentiviral shRNA vectors targeting ADAR1 (shADAR1) or scrambled control (shCtrl) to ablate endogenous ADAR1 expression. The shRNA plasmids targeting ADAR1 (shADAR1) as well as the scrambled control (shCtrl) were purchased from VectorBuilder (Chicago, IL) (shCtrl: […] (SEQ ID NO:3) and shADAR1: […]) (SEQ ID NO:4). […] Viral titers were assessed by qRT-PCR and transduction efficiency was tested in 293T cells. […]
For quantitative analysis of splice isoform expression, RNA editing rates, and whole gene expression by qRT-PCR, cells or tissue fragments were harvested in RNA lysis buffer and total RNA was extracted using RNeasy mini or micro extraction kits (QIAGEN, Germantown, MD) following the manufacturer's protocol including a DNase incubation step to digest any trace genomic DNA present. Levels of ADAR1 variants and LSC-specific transcripts were quantified by qRT-PCR as previously described.^14 RNA-editing site-specific qRT-PCR (RESSqPCR) was performed for variants in AZIN1 transcripts.^53 Additional species-specific primers were also designed to quantify intron retention rates in cells treated with Rebecsinib as a biomarker of response to RNA splicing modulation. […]

ADAR1 [2] = assay: ADAR1 nanoluc-GFP reporter assay in primary high-risk MF CD34+ cells in stromal co-culture; assay type: cell-based, human; settings: primary high-risk MF HPCs, 72 hr; p<0.05 compared to DMSO
From the text: (FIG. 27F) Luminescence-based quantification of ADAR1-dependent nanoluciferase signals in CD34^+ cells from primary, high-risk MF samples (*=untreated patient) after in vitro transduction with the ADAR1 nanoluc-GFP reporter and treatment with vehicle control (DMSO) or Rebecsinib (72 hr). Relative luciferase signals were normalized to cell viability for each condition. Data are represented as mean±SEM. p<0.05 compared to DMSO controls by pairwise t-test.
For nanoluciferase RNA editing activity assays, CD34^+ selected cells from primary high-risk MF samples were lentivirally transduced with ADAR1 nanoluc-GFP reporter for 48 hr, followed by treatment with DMSO or Rebecsinib in stromal co-culture for 72 hr. Luminescence reporter activity was measured in 10,000 cells by NANO-GLO LUCIFERASE ASSAY™ and values were normalized to cell viability. Cell viability was measured in 10,000 cells by CellTiter-Glo Luciferase Assay (Promega). A pilot in vivo reporter assay was also performed using TF-1a cells that were stably transduced with the ADAR1 nanoluc-GFP reporter. […] Cells were transplanted into neonatal Rag2^−/−γc^−/− mice (70,000 cells per mouse), and animals were imaged 4 weeks after transplant on the IVIS 200, as previously described.^7,9 Human cell engraftment was also confirmed in the peripheral blood in the same week as imaging.

ADAR1p150 = ADAR1p150 protein by intracellular flow cytometry in sAML50261 engrafted mice; assay type: in vivo, human cells in mice; settings: human HSC and HPC, spleens of sAML50261 engrafted mice, vs vehicle
Method: FIG. 30D illustrates a mean fluorescence intensity (MFI) of ADAR1p150 protein levels in human HSCs (CD45^+CD34^+CD38^−Lin^−) and HPCs (CD45^+CD34^+CD38^+Lin^−) from the spleens of sAML50261 engrafted mice treated with Rebecsinib or vehicle;
Flow cytometry for stem and progenitor cell surface antibody staining was performed as previously described.^14 For phospho-flow, a subset of samples was fixed and permeabilized, then blocked and stained with APC-conjugated ADAR1p150 antibody (cat ab269444, 1:25) and pSTAT3 APC (cat 17-9033-42, 1:10) (Table S2). Fractions were analyzed with the BD LSR FORTESSA™ (Sanford Consortium for Regenerative Medicine Stem Cell Core) and FLOWJO™ software (TreeStar, Ashland, OR).
In humanized mouse models, sAML cells (CD34^+) from two unique […] patient samples that were splicing factor mutated or unmutated were utilized, including sAML50261 and sAML2008-5.^14 For in vivo efficacy and therapeutic index studies, sAML CD34^+ cells, or normal human cord blood-derived or aged bone marrow-derived HSPCs (CD34^+), were transplanted (50,000-200,000 cells per mouse) intrahepatically into neonatal Rag2^−/−γc^−/− mice, or intravenously into adult NSG-SGM3 mice (Jackson Laboratories, Bar Harbor, ME). A subset of experiments was performed with normal aged bone marrow cells that were transduced with the lentiviral ADAR1 nanoluc-GFP reporter vector prior to transplant. […]

In the case of `CC[C@H](OC)[C@@H](C)[C@H]1O[C@@H]1[C@@H](O)[C@H](C)/C=C/C=C(\C)[C@H]1OC(=O)C[C@H](O)CC[C@@](C)(O)[C@@H](OC(C)=O)/C=C/[C@@H]1C` [Rebecsinib], the “ADAR1 expression as measured by qRT-PCR” value (ADAR1 [1]) was “reduced ADAR1 expression”, the “ADAR1 RNA editing activity (nanoluciferase signal)” value (ADAR1 [2]) was “significantly reduced ADAR1 RNA editing activity” and the “ADAR1p150 protein isoform levels” value (ADAR1p150) was “significantly decreased ADAR1p150 protein isoform levels”.
